# Test system: primary breast carcinoma cultures
# Assay: in vitro chemoresponse assay on primary breast carcinoma cultures (DAPI nuclei count, aAUC of dose response curve)
# Format: cell-based
# Settings: 39 primary breast cancer cultures, single agent, 10 doses 0.108-55.3 μM, 72 hours
# Description: After assay development, thirty-nine primary breast carcinoma cultures were treated with sunitinib at the doses shown in Table 1.
# All specimens treated with the drug were confirmed to contain a majority of epithelial cells (>65%) via immunocytochemistry. A 10-dose range of drug concentrations was used to treat the cell line and breast specimens for 72 hours. After treatment, the cultures were fixed with ethanol, and stained with DAPI. Any cells remaining adherent after treatment were considered live, and the DAPI stained nuclei were counted. The resulting dose response curves were analyzed.
# aAUC values were calculated, essentially as follows:
# (Xi is the normalized cell count of dose i)
smiles,measurement,setting,value
"CCN(CC)CCNC(=O)c1c(C)[nH]c(/C=C2\C(=O)Nc3ccc(F)cc32)c1C [sunitinib, Sunitinib]",share of breast specimens responsive to sunitinib (aAUC of ≦7.85),3 of 39,7.6%
same,share of breast specimens with intermediate response (aAUC of 7.85-9.22),8 of 39,20.5%
same,share of breast specimens non-responsive to the drug (aAUC of ≧9.22),28 of 39,71.7%

# — US20110207119A1, “METHODS FOR PREDICTING A CANCER PATIENT'S RESPONSE TO SUNITINIB” (priority 2010, published 2011)
